Consider three compounds from patent publication US12492178B2, “Stable polymorph of R-MDMA HCl” (EMPATHBIO, INC., priority 2021, dated 2025).

Read-outs that look alike come from different tables or passages of the source.

For data set [1] the following is noted: background statement; cited from earlier work.
The nature of data set [2]: Particle size distribution (PSD). The data set is classed as physicochemical.
Data set [3] in a line: Heating by DSC from RT to 200° C. and cooling to RT, XRPD of treated sample. In kind it is physicochemical. To be noted: cooled down to RT. As for the experimental part:
An (R)-MDMA HCl Form 1 sample was heated by DSC from RT to 200° C. and cooled down to RT.

Data set [4] is described as follows: Relative humidity stressing (state by XRPD). To be noted: for Observations after RH stressing / State after RH stressing: 6 d.
Data set [5] is described as follows: Dry milling, effect on crystallinity (XRPD). In kind it is physicochemical. To be noted: 30 Hz for 3×10 minutes. How it is done: A dry milling experiment was conducted to investigate the effect on crystallinity.
Data set [6] in a line: Stable form screen from slurries in organic solvent (state by XRPD). The data set is classed as physicochemical.
Data set [7] in a line: Dynamic Vapor Sorption (DVS). In kind it is physicochemical. The conditions noted are these: for Post-DVS crystalline form: XRPD of post-DVS solids. As for the experimental part: Dynamic vapor sorption data were collected on a Surface Measurement System DVS Intrinsic instrument.
Samples were not dried prior to analysis. Sorption and desorption data were collected over a range from 5% to 95% RH at 10% RH increments under a nitrogen purge. The equilibrium criterion used for analysis was less than 0.0100% weight change in 5 minutes with a maximum equilibration time of 3 hours. Data were not corrected for the initial moisture content of the samples.

Data set [8] can be described thus: Approximate solubility in various solvents at ambient temperature (aliquot addition, visual observation). To be noted: for solubility: ambient temperature. The data set is classed as physicochemical. As for the experimental part: Aliquots of various solvents were added to measured amounts of a Form I with agitation (typically sonication) at ambient temperature until complete dissolution was achieved, as judged by visual observation. If dissolution occurred after the addition of the first aliquot, values are reported as “>”.

Data set [9] is described as follows: pH of aqueous solution using pH test strips. The data set is classed as physicochemical. To be noted: 10 mg/mL aqueous solution.
Data set [10] can be described thus: Stable form screen from slurries in aqueous/organic mixtures at room temperature for 7 days (state by XRPD). The data set is classed as physicochemical. To be noted: RT.
Data set [11] can be described thus: Stable form and polymorph screen, twenty-nine experiments (XRPD). The data set is classed as physicochemical. To be noted: all samples of Example 3, XRPD.

For the compound `CNC(C)Cc1ccc2c(c1)OCO2` (stereo not drawn) [MDMA, 3,4-Methylenedioxymethamphetamine], the “Solubility in water (in words)” value in [1] is recorded as “insoluble in water”.

A word on the solubility: it is the dissolved amount per volume that the medium holds. Consider `CN[C@H](C)Cc1ccc2c(c1)OCO2.Cl` [R-MDMA HCl Form I, (R)-3,4-methylenedioxymethamphetamine HCl], for which the “PSD d10” value in [2] stood at 5.10 μm. For the same compound, in data set [2], the “PSD d50” value stood at 19.2 μm. Also, in data set [2], the “PSD d90” value is 48.8 μm. Besides, the “Crystalline state after heating” value in data set [3] is “Form I crystalline state”. Moreover, the “Observations after RH stressing” value is on record as “free-flowing solids, B/E” in data set [4] (75% RH); “mostly free-flowing solids, some clumps,” in data set [4] (90% RH); “off-white fines, B/E, some deliquesence” in [4] (97% RH). Also, the “State after RH stressing” value in data set [4] (75% RH) is recorded as “Form I”; in data set [4] (90% RH) it was “Form I”; in data set [4] (97% RH), “Form I, PO”. Also, the “Physical stability upon stressing” value in data set [4] (97% RH for 6 days) is recorded as “exhibits physical stability”. Also, the “State after dry milling” value in [5] is reported as “Form I with no apparent decrease in crystallinity”. For the same compound, the State after slurry result in [6] (1-BuOH, RT, 14 d) was “Form I”; in data set [6] (90:10 EtOAc/MeOH, RT, 14 d) it was “Form I”; in data set [6] (ACN, RT, 14 d), “Form I”; in data set [6] (DCM, RT, 14 d), “Form I”; in [6] (EtOH, RT, 14 d), “Form I”; in data set [6] (IPA, RT, 14 d), “Form I”. In addition, the State after slurry result in data set [6] (IPA, ~5° C., 14 d) is listed as “Form I”; in [6] (MeOH/MTBE (10:90), RT, 5 d), “Form I”; in data set [6] (t-BuOH, ~75° C., 7 d), “Form I”; in data set [10] (THF/water 98:2 (aw 0.38)), “Form I”; in [10] (acetone/water 98:2 (aw 0.35)), “Form I”; in data set [10] (p-dioxane/water 95:5 (aw 0.40)) it was “Form I”. In addition, the “Water sorbed, equivalent moles” value in data set [7] (5-85% RH) was found to be 0.04 moles water; in data set [7] (85-95% RH, per mole of salt), 0.7 mol water. Also, the DVS wt. gain in [7] (5-85% RH, sorption, HCl) came to 0.28% wt. gain 5-85% RH; in [7] (5-85% RH, sorption, listed as (R)-MDMA HCl Form I, HCl), 0.28%; in data set [7] (85-95% RH, sorption), 5.00%. For the same compound, in data set [7] (5-95% RH, sorption, listed as (R)-3,4-methylenedioxymethamphetamine HCl Form I, HCl), the DVS weight gain is on record as 5.28±0.02%. For the same compound, the DVS wt. loss in [7] (85-5% RH, desorption) was 0.51% wt. loss 85-5% RH; in data set [7] (95-85% RH, desorption) it was 4.84% wt. loss 95-85% RH. In data set [7] (95-5% RH, desorption, listed as (R)-3,4-methylenedioxymethamphetamine HCl Form I, HCl), this compound had a DVS weight loss of 5.35±0.02%. Besides, the Post-DVS crystalline form entry in data set [7] (HCl) was “Post-DVS crystalline form was found to be Form I”; in data set [7] (listed as (R)-MDMA HCl Form I, HCl), “consistent with Form I”. Besides, the “Hygroscopicity (in words)” value in [7] (between 5% and 85% RH) is “low hygroscopicity”; in data set [7] (between 85% and 95% RH) it was “Significant hygroscopicity”. For the same compound, in data set [7] (desorption 95-5% RH), the Hysteresis on desorption entry is reported as “virtually no hysteresis”. The “Approximate solubility at RT (in words)” value in data set [8] (ACN, DCM, and most alcohols, listed as R-MDMA HCl Form 1, HCl) is “good solubility in ACN, DCM, and most alcohols”; in data set [8] (aqueous environments, HCl), “The compound exhibited high solubility in aqueous environments,”; in [8] (aqueous environments, listed as R-MDMA HCl Form 1, HCl), “high solubility in aqueous environments”; in data set [8] (most organic solvents tested, HCl), “Lower solubility was observed in most organic solvents tested”; in data set [8] (most organic solvents tested, listed as R-MDMA HCl Form 1, HCl) it was “Lower solubility was observed in most organic solvents tested”. For the same compound, the solubility in data set [8] (Water, listed as R-MDMA HCl Form 1, HCl) was above 110000 µg/mL; in [8] (organic solvent or mixture, thermodynamic from solid, 1-BuOH, read-out: Solubility), 3000 µg/mL; in data set [8] (organic solvent or mixture, thermodynamic from solid, 90:10 Acetone/Water, read-out: Solubility) it was above 76000 µg/mL; in [8] (organic solvent or mixture, thermodynamic from solid, Acetone, read-out: Solubility), below 1000 µg/mL; in [8] (organic solvent or mixture, thermodynamic from solid, CAN, read-out: Solubility) it was 7000 µg/mL; in [8] (organic solvent or mixture, thermodynamic from solid, DCM, read-out: Solubility), 16000 µg/mL. The solubility in data set [8] (organic solvent or mixture, thermodynamic from solid, EtOAc, read-out: Solubility) is below 1000 µg/mL; in [8] (organic solvent or mixture, thermodynamic from solid, EtOH, read-out: Solubility) it was 25000 µg/mL; in data set [8] (organic solvent or mixture, thermodynamic from solid, Heptane, read-out: Solubility), below 1000 µg/mL; in data set [8] (organic solvent or mixture, thermodynamic from solid, IPA, read-out: Solubility), 6000 µg/mL; in data set [8] (organic solvent or mixture, thermodynamic from solid, MTBE, read-out: Solubility), below 1000 µg/mL; in data set [8] (organic solvent or mixture, thermodynamic from solid, MeOH, read-out: Solubility), above 114000 µg/mL. The solubility in [8] (organic solvent or mixture, thermodynamic from solid, MeOH/MTBE (5:95), read-out: Solubility) is below 1000 µg/mL; in data set [8] (organic solvent or mixture, thermodynamic from solid, MeOH/MTBE (10:90), read-out: Solubility) it was below 2000 µg/mL; in data set [8] (organic solvent or mixture, thermodynamic from solid, MeOH/MTBE (20:80), read-out: Solubility) it was 3000 µg/mL; in [8] (organic solvent or mixture, thermodynamic from solid, THF, read-out: Solubility), below 1000 µg/mL; in data set [8] (organic solvent or mixture, thermodynamic from solid, p-dioxane, read-out: Solubility) it was below 1000 µg/mL; in data set [8] (organic solvent or mixture, thermodynamic from solid, t-BuOH, read-out: Solubility) it was 1000 µg/mL. In data set [8] (thermodynamic from solid, Water, read-out: Solubility), the solubility is above 110000 µg/mL. In addition, in data set [9], the “pH of aqueous solution” value is “pH of a 10 mg/mL aqueous solution is approximately 6 using pH test”. In [11], the “Form found in stable form and polymorph screen” value is reported as “Form I was formed in each case”.

Regarding `CNC(C)Cc1ccc2c(c1)OCO2.Cl` (racemic) [hydrochloride salt of racemic MDMA], the “Solubility in water (in words)” value in [1] is recorded as “soluble in water”.
